Several values for one entry are separate records, joined by “and”; a condition that tells them apart may be missing. Equal entries are not always repeated.
How the values were obtained:
[1] = tested on: doxorubicin-induced cardiotoxicity in mice; assay: Chronic mouse model of doxorubicin-induced cardiotoxicity; assay type: in vivo; conditions: DOX-treated mice; sildenafil citrate 0.7 mg/kg ip
Procedure: Mice are treated with doxorubicin in the presence or absence of clinically relevant doses of sildenafil citrate, and the left ventricular systolic function is correlateed using 2-dimensional (2D) contrast echocardiography. The actions of dosing sildenafil citrate 24 hours prior to each dose of doxorubicin (Total of 3 doses) versus dosing sildenafil citrate daily for 28 days is tested. Histological examination is performed to assess the ultrastructural alterations including nuclear condensation with coarse chromatin clumping, sarcoplasmic reticulum vacuolization, and mitochondrial fine structure disruption which are known to occur widely in doxorubicin-treated cardiomyocytes. […] The role of sildenafil in attenuation of DOX-induced apoptosis and attenuation of mitochondrial transition pore opening is assessed. The contribution of […] channel opening in rescuing DOX-induced cell death in sildenafil treated mice is determined by using 5-hydroxydecanoate, a selective blocker of the […] channel.
Materials and methods. […] Weight of all animals is measured weekly and gross heart weight is measured prior to freezing in liquid nitrogen. […] Specifically, nuclear chromatinmargination, mitochondrial swelling, cristae disappearance/matrix clearing, presence or absence of contractile apparatus disarray, and sarcoplasmic reticulum vacuolization is measured.

[2] = tested on: nNOS, iNOS and eNOS knockout mouse hearts; assay: Delayed cardioprotection in NOS gene-knockout mice, isolated perfused heart, 30 min global ischemia and 60 min reperfusion; assay type: in vivo; conditions: iNOS-KO mice
[3] = tested on: rabbit heart, ischemia/reperfusion injury; assay: In situ rabbit model of myocardial infarction (30 min coronary occlusion, 180 min reperfusion), infarct size by TTC staining; assay type: in vivo; conditions: for reduction of infarct size vs saline control: 0.7 mg/kg IV
[4] = tested on: iNOS; assay: Cardiac iNOS mRNA (RT-PCR) and protein (Western blot) expression after treatment; assay type: in vivo, mouse; conditions: 0.7 mg/kg IP
Procedure: Adult male outbred ICR mice were supplied by Harlan Inc (Indianapolis, Ind.). Viagra pills (Pfizer Inc) were ground into powder and dissolved in saline. The drug solution was filtered (0.45-μm pore size) before intraperitoneal injection. 1400W, an iNOS inhibitor, was obtained from Alexis. We used an isolated perfused mouse heart model subjected to 20 minutes of global ischemia and 30 minutes of reperfusion (Langendorff mode). Myocardial I-R injury was assessed by measuring infarct size, contractile function, and coronary flow as described previously (Xi, 1999). Twenty-eight mice were randomized into the following 4 groups: (n=6 to 9 per group): (1) saline (0.15 mL IP), (2) sildenafil (0.7 mg/kg IP, equivalent to 50 mg Viagra pill used for patients with erectile dysfunction, given 24 hours before I-R), (3) sildenafil+1400W (10 mg/kg IP, 14 given 30 minutes before I-R), and (4) saline+1400W. Measurement of NOS Isoforms Mice were treated with sildenafil (0.7 mg/kg IP), and their hearts were removed at 15, 30, and 45 minutes and 1, 2, 3, 4, and 24 hours after injection (n=3 per group). Three nontreated hearts were used as controls. Tissue samples were ground under liquid nitrogen and homogenized with TRI Reagent (Molecular Research Center) for extracting total RNA, which was reverse-transcribed into cDNA at 50° C. for 30 minutes using a OneStep reverse transcription (RT)-polymerase chain reaction (PCR) kit from Qiagen. The oligonucleotide primers were synthesized on the basis of published sequences for murine iNOS, eNOS, and GAPDH15 (Integrated DNA Technology). The RT-PCR products were electrophoresed on 1.5% Trisacetate-EDTA agarose gel. The target bands were identified on the basis of their specific size using DNA standards. iNOS and eNOS proteins were measured by Western blots as described previously. […] The mRNA and protein expression were quantified by scanning each of the RT-PCR or Western blot band using a densitometer (Bioquant 98). […]

[5] = tested on: cardiac myocytes from adult mice; assay: Simulated ischemia/reoxygenation in isolated cardiac myocytes (trypan blue, TUNEL); assay type: cell-based; conditions: 10 μM, 40 min simulated ischemia
Procedure: The ability of sildenafil to confer protection against necrosis and apoptosis in cardiac myocytes was tested. Freshly isolated myocytes from adult mice were exposed to simulated ischemia with or without sildenafil (10 μM) for 40 minutes followed by reoxygenation for 60 minutes. The ischemic buffer contained (in mM): 118 NaCl, 24 NaHCO3, 1.0 NaH2PO4, 2.5 CaCl2-2H2O, 1.2 MgCl2, 20 sodium lactate, 16 KCl, 10 2-deoxyglucose (pH adjusted to 6.2). At the end of this protocol, necrotic cell death was evaluated by uptake of trypan blue using a phase contrast microscope. To determine apoptosis, the myocytes were reoxygenated for an extended period of 18 hrs after incubating them in the ischemic buffer for 40 minutes. Apoptosis was determined using the terminal deoxynucleotide nick-end labeling (TUNEL) assay which detects cells undergoing programmed cell death due to DNA fragmentation.

CCCc1nn(C)c2c(=O)[nH]c(-c3cc(S(=O)(=O)N4CCN(C)CC4)ccc3OCC)nc12 [sildenafil]
LV function [1]: improves LV function | ultrastructural damage to the heart [1]: reduces ultrastructural damage to the heart | delayed cardioprotection [2]: absent | infarct size ([3]; 0.1 mg/kg, 30 minutes prior to ischemia): 17.05% | infarct size ([3]; 0.2 mg/kg, 30 minutes prior to ischemia): 13.53±1.24 | infarct limiting effect at lower doses (0.2 and 0.1 mg/kg) versus the 0.7 mg/kg dose ([3]; 30 minutes prior to ischemia): comparable | reduction of infarct size vs saline control ([3]; acute phase, 0.7 mg/kg): 68% and 67% | infarct size ([3]; acute phase: sildenafil 0.7 mg/kg IV 30 min prior to ischemia/reperfusion): 10.8±0.9 % of risk area | reduction of infarct size vs saline control ([3]; delayed phase): 41% | infarct size ([3]; delayed phase: sildenafil 0.7 mg/kg IV 24 hrs prior to ischemia/reperfusion): 19.9±2.0 % of risk area | infarct size ([3]; total dose 0.7 mg/kg infused from 25 min of ischemia into reperfusion for 1 hr, 0.7 mg/kg): 18.37±2.42 | infarct size ([3]; total dose 0.7 mg/kg infused from 25 min of ischemia into reperfusion for 1 hr, listed as Sildenafil, 0.7 mg/kg): significant reduction in the infarct size | iNOS mRNA and protein expression [4]: increase | magnitude of increase, iNOS compared with eNOS [4]: much higher for iNOS | time of peak iNOS mRNA level [4]: 2 h | necrotic cell death by trypan blue uptake ([5]; 60 min reoxygenation): significantly more blue (i.e. viable) cells | apoptosis by TUNEL staining ([5]; 18 hrs reoxygenation): rescues myocytes against apoptotic cell death

Source: patent US7091207B2, “Method of treating myocardial infarction with PDE-5 inhibitors” (Virginia Commonwealth University, priority 2002, dated 2006)
